Laboratory results: ChEMBL document CHEMBL6114961, “Novel isoxazole thiophene-containing compounds active against Mycobacterium tuberculosis” (Bioorg Med Chem Lett, 2025)
Converted amounts (≈) assume the structure as drawn.

Key:
[1] = tested on: Mycobacterium tuberculosis; assay: Antituberculosis activity against Mycobacterium tuberculosis H37Rv infected in human THP-1 cells assessed as reduction in bacterial growth pre-infected with bacteria for 24 hrs followed by compound addition and measured 3 days by luminescence based intramacrophage assay; assay type: functional, organism-based
HepG2 = assay: Cytotoxicity against human HepG2 cells measured after 3 days by Cell Titer-Glo Luminescent Cell Viability Assay; assay type: functional; details: HepG2, 72 h, time 3 day
[2] = tested on: Mycobacterium tuberculosis; assay: Antituberculosis activity against Mycobacterium tuberculosis H37Rv assessed as reduction in bacterial growth measured after 7 days using 7H9 broth by Alamar blue staining based analysis; assay type: functional; details: 168 h, time 7 day
[3] = Selectivity index, ratio of CC50 for Cytotoxicity against human HepG2 cells to MIC for antituberculosis activity against Mycobacterium tuberculosis H37Rv assessed as reduction in bacterial growth; assay type: toxicity, cell-based, Hep G2; details: read-out: Selectivity Index
[4] = Metabolic stability in mouse liver microsomes assessed as intrinsic clearance; assay type: ADME, Microsome; details: read-out: CLH
[5] = Plasma protein binding in mouse assessed as unbound fraction; assay type: ADME, cell-free
[6] = Apparent permeability in human Caco-2 cells across apical to basolateral side; assay type: ADME, cell-based
[7] = Apparent permeability in human Caco-2 cells across basolateral side to apical side; assay type: ADME, cell-based
Cytochrome P450 3A4 = Cytochrome P450 3A4 (Homo sapiens, UniProt P08684); assay: Inhibition of CYP3A4 (unknown origin); assay type: ADME
Cytochrome P450 3A4, sequence (P08684 whole entry): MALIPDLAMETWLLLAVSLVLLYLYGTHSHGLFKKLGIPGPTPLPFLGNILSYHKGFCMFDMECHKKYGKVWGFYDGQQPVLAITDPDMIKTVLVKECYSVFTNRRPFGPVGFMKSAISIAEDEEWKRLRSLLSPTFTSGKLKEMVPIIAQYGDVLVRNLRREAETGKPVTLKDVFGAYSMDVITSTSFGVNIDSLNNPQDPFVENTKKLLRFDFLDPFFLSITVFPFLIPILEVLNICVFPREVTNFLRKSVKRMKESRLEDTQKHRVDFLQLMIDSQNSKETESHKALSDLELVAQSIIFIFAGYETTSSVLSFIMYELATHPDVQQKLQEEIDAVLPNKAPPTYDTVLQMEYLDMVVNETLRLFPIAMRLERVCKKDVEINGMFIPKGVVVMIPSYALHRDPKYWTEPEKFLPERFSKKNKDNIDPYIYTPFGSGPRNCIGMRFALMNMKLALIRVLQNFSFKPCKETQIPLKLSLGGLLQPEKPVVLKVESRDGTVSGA

Cytochrome P450 1A2 = molecular target: T1, Cytochrome P450 1A2 (Homo sapiens, UniProt P05177); assay: Inhibition of CYP1A2 (unknown origin); assay type: ADME
T1 sequence (P05177 whole entry): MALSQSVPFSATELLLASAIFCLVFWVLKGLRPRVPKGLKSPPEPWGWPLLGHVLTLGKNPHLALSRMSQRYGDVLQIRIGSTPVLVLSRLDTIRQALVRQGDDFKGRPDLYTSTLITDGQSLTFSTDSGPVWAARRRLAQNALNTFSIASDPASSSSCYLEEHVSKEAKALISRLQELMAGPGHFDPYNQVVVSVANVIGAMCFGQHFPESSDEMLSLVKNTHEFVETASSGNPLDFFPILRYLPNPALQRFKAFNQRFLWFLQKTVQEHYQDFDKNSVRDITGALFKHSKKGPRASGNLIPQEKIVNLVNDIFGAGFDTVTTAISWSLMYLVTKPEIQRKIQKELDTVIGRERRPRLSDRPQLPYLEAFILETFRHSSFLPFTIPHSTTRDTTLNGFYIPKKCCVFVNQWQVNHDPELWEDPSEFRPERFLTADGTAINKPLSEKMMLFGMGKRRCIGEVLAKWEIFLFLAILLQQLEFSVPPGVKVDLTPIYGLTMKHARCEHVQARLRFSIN

Cytochrome P450 2D6 = Cytochrome P450 2D6 (Homo sapiens, UniProt P10635); assay: Inhibition of CYP2D6 (unknown origin); assay type: ADME
Cytochrome P450 2D6, sequence (P10635 whole entry): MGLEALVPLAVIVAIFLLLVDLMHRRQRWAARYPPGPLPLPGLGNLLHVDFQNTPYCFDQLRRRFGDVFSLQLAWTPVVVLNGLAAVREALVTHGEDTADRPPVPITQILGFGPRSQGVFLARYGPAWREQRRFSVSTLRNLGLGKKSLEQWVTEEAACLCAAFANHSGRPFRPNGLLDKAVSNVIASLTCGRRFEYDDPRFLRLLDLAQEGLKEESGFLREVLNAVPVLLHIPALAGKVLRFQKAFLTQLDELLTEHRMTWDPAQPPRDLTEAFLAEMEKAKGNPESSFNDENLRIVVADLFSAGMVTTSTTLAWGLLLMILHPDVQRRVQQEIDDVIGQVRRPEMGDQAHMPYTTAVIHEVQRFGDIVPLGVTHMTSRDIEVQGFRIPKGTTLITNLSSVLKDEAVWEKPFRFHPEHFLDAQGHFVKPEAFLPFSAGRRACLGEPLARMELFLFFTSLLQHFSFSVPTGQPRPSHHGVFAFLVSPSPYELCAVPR

Cytochrome P450 2C19 = Cytochrome P450 2C19 (Homo sapiens, UniProt P33261); assay: Inhibition of CYP2C19 (unknown origin); assay type: ADME
Cytochrome P450 2C19, sequence (P33261 whole entry): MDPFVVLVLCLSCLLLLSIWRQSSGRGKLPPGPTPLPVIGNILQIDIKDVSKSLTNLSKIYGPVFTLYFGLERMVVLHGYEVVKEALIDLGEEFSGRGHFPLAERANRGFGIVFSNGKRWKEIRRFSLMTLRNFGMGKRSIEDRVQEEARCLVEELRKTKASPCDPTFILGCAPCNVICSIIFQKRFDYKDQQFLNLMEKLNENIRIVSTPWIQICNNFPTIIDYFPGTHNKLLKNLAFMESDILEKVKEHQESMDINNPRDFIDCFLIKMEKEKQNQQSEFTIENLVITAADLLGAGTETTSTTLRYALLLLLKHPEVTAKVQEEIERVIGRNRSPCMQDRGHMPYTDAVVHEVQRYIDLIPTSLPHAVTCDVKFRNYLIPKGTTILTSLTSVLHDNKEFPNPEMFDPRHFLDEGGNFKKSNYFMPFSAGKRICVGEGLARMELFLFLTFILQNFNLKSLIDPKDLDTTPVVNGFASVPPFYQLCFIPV

Cytochrome P450 2C9 = Cytochrome P450 2C9 (Homo sapiens, UniProt P11712); assay: Inhibition of CYP2C9 (unknown origin); assay type: ADME
Cytochrome P450 2C9, sequence (P11712 whole entry): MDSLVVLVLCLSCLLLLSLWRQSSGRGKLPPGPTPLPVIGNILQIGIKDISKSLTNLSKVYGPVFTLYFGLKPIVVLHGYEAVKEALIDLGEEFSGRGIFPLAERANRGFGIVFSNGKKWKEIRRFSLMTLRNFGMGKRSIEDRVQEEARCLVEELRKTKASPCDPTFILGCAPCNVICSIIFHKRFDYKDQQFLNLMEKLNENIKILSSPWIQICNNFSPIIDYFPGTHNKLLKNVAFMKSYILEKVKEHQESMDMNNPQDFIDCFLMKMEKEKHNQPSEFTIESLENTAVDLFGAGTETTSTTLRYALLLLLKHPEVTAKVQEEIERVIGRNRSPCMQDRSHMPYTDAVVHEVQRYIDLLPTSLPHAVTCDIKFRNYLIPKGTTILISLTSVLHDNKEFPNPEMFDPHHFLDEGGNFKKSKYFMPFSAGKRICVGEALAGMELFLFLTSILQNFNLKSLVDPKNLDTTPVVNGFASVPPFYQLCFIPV

[8] = molecular target: Voltage-gated inwardly rectifying potassium channel KCNH2 (Homo sapiens, UniProt Q12809); assay: Inhibition of human ERG; assay type: toxicity
Voltage-gated inwardly rectifying potassium channel KCNH2, sequence (Q12809 whole entry): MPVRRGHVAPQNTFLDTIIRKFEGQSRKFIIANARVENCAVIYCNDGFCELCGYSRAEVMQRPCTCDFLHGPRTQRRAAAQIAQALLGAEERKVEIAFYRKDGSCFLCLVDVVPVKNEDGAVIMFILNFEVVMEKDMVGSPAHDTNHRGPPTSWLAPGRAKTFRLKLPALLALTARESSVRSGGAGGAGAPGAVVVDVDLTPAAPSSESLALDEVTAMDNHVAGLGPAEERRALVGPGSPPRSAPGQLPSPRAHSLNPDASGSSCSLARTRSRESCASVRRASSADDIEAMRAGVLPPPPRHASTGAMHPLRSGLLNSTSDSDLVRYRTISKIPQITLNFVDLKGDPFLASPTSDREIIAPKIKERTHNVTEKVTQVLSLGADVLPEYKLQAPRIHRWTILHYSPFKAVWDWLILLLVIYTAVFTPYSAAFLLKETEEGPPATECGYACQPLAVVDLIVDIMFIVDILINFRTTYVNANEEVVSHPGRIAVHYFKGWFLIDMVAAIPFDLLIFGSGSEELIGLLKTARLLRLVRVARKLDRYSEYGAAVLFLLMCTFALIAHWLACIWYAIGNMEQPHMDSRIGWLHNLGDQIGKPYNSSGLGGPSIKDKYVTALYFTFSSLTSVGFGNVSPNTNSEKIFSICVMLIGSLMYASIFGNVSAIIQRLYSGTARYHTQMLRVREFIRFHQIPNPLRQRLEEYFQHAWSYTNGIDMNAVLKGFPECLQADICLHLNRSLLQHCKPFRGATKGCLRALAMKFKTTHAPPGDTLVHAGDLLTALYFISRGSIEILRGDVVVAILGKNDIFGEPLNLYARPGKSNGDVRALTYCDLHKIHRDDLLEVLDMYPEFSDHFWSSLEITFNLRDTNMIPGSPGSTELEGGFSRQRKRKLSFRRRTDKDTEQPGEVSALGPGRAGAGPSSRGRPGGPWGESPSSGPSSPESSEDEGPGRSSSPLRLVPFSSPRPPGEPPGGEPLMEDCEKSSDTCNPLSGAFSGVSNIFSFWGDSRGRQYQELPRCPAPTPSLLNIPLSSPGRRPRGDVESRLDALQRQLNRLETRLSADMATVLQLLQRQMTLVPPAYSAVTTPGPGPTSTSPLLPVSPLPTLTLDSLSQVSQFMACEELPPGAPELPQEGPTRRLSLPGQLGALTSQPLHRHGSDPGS

[9] = Cmax in male CD-1 mouse at 20 mg/kg, po; assay type: ADME, organism-based; details: in vivo
[10] = Tmax in male CD-1 mouse at 20 mg/kg, po; assay type: ADME, organism-based; details: in vivo
[11] = Half life in male CD-1 mouse at 20 mg/kg, po; assay type: ADME, organism-based; details: in vivo
[12] = MRT (0 tot 24 hrs) in male CD-1 mouse at 20 mg/kg, po; assay type: ADME, organism-based; details: in vivo
[13] = AUC (0 tot 24 hrs) in male CD-1 mouse at 20 mg/kg, po; assay type: ADME, organism-based; details: in vivo
[14] = Oral bioavailability in male CD-1 mouse at 20 mg/kg; assay type: ADME, organism-based; details: in vivo
[15] = AUC (0 tot 24 hrs) in male CD-1 mouse at 3 mg/kg, iv; assay type: ADME, organism-based; details: in vivo
[16] = Plasma concentration in male CD-1 mouse at 20 mg/kg, po measured for 14 hrs; assay type: ADME, organism-based
[17] = tested on: Mycobacterium tuberculosis; assay: Bactericidal activity against non-replicating Mycobacterium tuberculosis Hu-Coates model assessed as reduction in CFU at 20 uM; assay type: functional
[18] = tested on: Mycobacterium tuberculosis; assay: Bactericidal activity against non-replicating Mycobacterium tuberculosis Hu-Coates model assessed as reduction in CFU at 20 uM in presence of BPaL; assay type: functional
[19] = Plasma concentration in male CD-1 mouse at 20 mg/kg, po measured for 6 hrs; assay type: ADME, organism-based

Work on `O=S(=O)(Nc1cc(-c2ccsc2)no1)C1CCOC1` (stereo unspecified) yielded an EC50 [1] of over 25 µM and a CC50 (HepG2) of over 40 µM.

For `O=S(=O)(Nc1cc(-c2ccsc2)no1)c1c(F)cccc1F`, the EC50 [1] was 13.9 µM and the CC50 (HepG2) was over 40 µM.

`O=S(=O)(Nc1cc(-c2csc(C(F)(F)F)c2)no1)c1ccccc1F` gave an EC50 [1] of over 25 µM and a CC50 (HepG2) of over 40 µM.

For `O=S(=O)(Nc1cc(-c2ccsc2)no1)c1cccc(F)c1`, the EC50 [1] was 24.4 µM and the CC50 (HepG2) was over 40 µM.

`Cc1cc(-c2cc(NS(=O)(=O)c3ccccc3F)on2)c(C)s1` gave an EC50 [1] of 24.8 µM and a CC50 (HepG2) of over 40 µM.

For `CN(c1cc(-c2ccsc2)no1)S(=O)(=O)c1ccccc1F`, the EC50 [1] was 12.6 µM and the CC50 (HepG2) was over 40 µM.

For `O=S(=O)(Nc1cc(-c2ccsc2)no1)c1ccc2c(c1)CC2`, the EC50 [1] was 3.65 µM and the CC50 (HepG2) was over 40 µM.

For `O=S(=O)(Nc1cc(-c2ccsc2)no1)c1ccccc1`, the EC50 [1] was over 25 µM and the CC50 (HepG2) was over 40 µM.

With `O=S(=O)(Nc1cc(-c2ccsc2)no1)c1cccc(F)c1F` the EC50 [1] was over 25 µM and the CC50 (HepG2) was over 40 µM.

Work on `CC1(C)COCCC1S(=O)(=O)Nc1cc(-c2ccsc2)no1` (stereo unspecified) yielded an EC50 [1] of over 25 µM and a CC50 (HepG2) of over 40 µM.

Compound `O=S(=O)(Nc1cc(-c2ccsc2)no1)c1ccccc1Cl` has an EC50 [1] of 14.8 µM and a CC50 (HepG2) of over 40 µM.

Compound `O=S(=O)(Nc1cc(-c2ccsc2)no1)c1cc(F)ccc1F` has an EC50 [1] of over 25 µM and a CC50 (HepG2) of over 40 µM.

In the case of `O=S(=O)(Nc1cc(-c2ccsc2)no1)c1ccc(F)cc1F`, the EC50 [1] is reported as 24.9 µM and the CC50 (HepG2) is reported as over 40 µM.

For `O=S(=O)(Nc1cc(-c2ccsc2)no1)C1CCC(F)(F)CC1`, the EC50 [1] was over 25 µM and the CC50 (HepG2) was over 40 µM.

`O=S(=O)(Nc1cc(-c2ccsc2)no1)c1ccc2c(c1)CCC2` showed an EC50 [1] of 24.9 µM and a CC50 (HepG2) of over 40 µM.

`O=S(=O)(CC1CCOCC1)Nc1cc(-c2ccsc2)no1` showed an EC50 [1] of over 25 µM and a CC50 (HepG2) of over 40 µM.

With `O=S(=O)(Nc1noc(-c2ccsc2)n1)C1CCOCC1` the EC50 [1] was over 25 µM.

Compound `O=S(=O)(Nc1cc(-c2ccsc2)no1)C1CCCCC1` has an EC50 [1] of 24.9 µM and a CC50 (HepG2) of over 40 µM.

`O=C(Nc1cc(-c2ccsc2)no1)c1ccccc1F` showed an EC50 [1] of 22.8 µM and a CC50 (HepG2) of over 40 µM.

For `O=S(=O)(Nc1cc(-c2ccsc2)no1)c1cccnc1F`, the EC50 [1] was over 25 µM and the CC50 (HepG2) was over 40 µM.

Work on `O=S(=O)(Nc1cc(-c2cscn2)no1)C1CCOCC1` yielded an EC50 [1] of over 25 µM and a CC50 (HepG2) of over 40 µM.

Compound `O=S(=O)(Nc1cc(-c2ccoc2)no1)C1CCOCC1` has an EC50 [1] of over 25 µM and a CC50 (HepG2) of over 40 µM.

`O=S(=O)(Nc1cc(-c2ccsn2)no1)C1CCOCC1` gave an EC50 [1] of over 25 µM and a CC50 (HepG2) of over 25 µM.

In the case of `O=S(=O)(Nc1cc(-c2ccsc2)no1)c1ccccc1F`, the EC50 [1] is reported as 2.93 µM, the CC50 (HepG2) is reported as over 40 µM and the MIC90 [2] is reported as 1.24 µM (≈ 0.402 µg/mL). The selectivity ratio [3] was over 32, the microsomal CLint [4] was 5.6 µL/min/mg and the fraction unbound [5] was 0.996. For the same compound, the Papp A→B [6] was 3.6 ×10⁻⁶ cm/s, the Papp B→A [7] was 27.3 ×10⁻⁶ cm/s and the IC50 (Cytochrome P450 3A4) was over 50 µM. It also gave an IC50 (Cytochrome P450 1A2) of over 50 µM, an IC50 (Cytochrome P450 2D6) of over 50 µM and an IC50 (Cytochrome P450 2C19) of 28.2 µM. It also gave an IC50 (Cytochrome P450 2C9) of 3.2 µM, an IC50 [8] of over 30 µM and a Cmax [9] of 64200 ng/mL. For the same compound, the Tmax [10] was 0.67 h, the half-life [11] was 1.83 h and the MRT last at 24 h [12] was 3.44 h. The AUC(0-t) at 24 h [13] was 4450 ng·h/mL, the bioavailability [14] was 78% and the AUC [15] was 50981 ng·min/mL. The concentration at 14 h [16] was 949 ng/mL, the Activity [17] was 1.02 log10CFU and the Activity [18] was 3 log10CFU.

With `O=S(=O)(Nc1cc(-c2csc(Cl)c2)no1)C1CCOCC1` the EC50 [1] was over 25 µM and the CC50 (HepG2) was over 40 µM.

Work on `O=S(=O)(Nc1cc(-c2ccsc2)no1)C1CCNCC1` yielded an EC50 [1] of over 25 µM and a CC50 (HepG2) of over 40 µM.

With `O=S(=O)(Nc1cc(-c2cccnc2)no1)c1ccccc1F` the EC50 [1] was 24.8 µM and the CC50 (HepG2) was over 40 µM.

`O=S(=O)(Nc1cc(-c2ccsc2)no1)c1c(F)cc(F)cc1F` gave an EC50 [1] of over 25 µM and a CC50 (HepG2) of over 40 µM.

For `O=S(=O)(Nc1cc(-c2cccs2)no1)C1CCOCC1`, the EC50 [1] was over 25 µM and the CC50 (HepG2) was over 40 µM.

`O=S(=O)(Nc1cc(-c2ccsc2)no1)C1CCOCC1` gave an EC50 [1] of 1.96 µM, a CC50 (HepG2) of over 40 µM and a microsomal CLint [4] of 0.2 µL/min/mg. The fraction unbound [5] was 0.845, the Cmax [9] was 24200 ng/mL and the Tmax [10] was 0.67 h. The half-life [11] was 2.19 h, the MRT last at 24 h [12] was 1.7 h and the AUC(0-t) at 24 h [13] was 713 ng·h/mL. For the same compound, the bioavailability [14] was 58%, the AUC [15] was 11076 ng·min/mL and the concentration at 6 h [19] was 613 ng/mL.
